The numbers were not newly measured in patent publication US20100047788A1, “METHOD AND KIT FOR DIAGNOSIS AND MONITORING OF THE TREATMENT OF CHRONIC TRIPANOSSOMIASIS AND CHAGAS DISEASE” (FUNDACÃO UNIVERSIDADE DE BRASÍLIA CDTCAMPUS UNIVER, priority 2006, published 2010), which cites them from elsewhere.

The series relates to LINE-1. The settings on record: background statement; taken as indication of non occurrence of the kDNA integration.

Regarding `Cc1cn([C@H]2C[C@H](N=[N+]=[N-])[C@@H](CO)O2)c(=O)[nH]c1=O` [AZT], the “effect on retrotransposition of LINE-1” value is given as “prevented the retrotransposition of LINE-1”.
